In US20150342954A1, “2-BENZYL, 3-(PYRIMIDIN-2-YL) SUBSTITUTED PYRAZOLES USEFUL AS SGC STIMULATORS” (IRONWOOD PHARMACEUTICALS, INC., priority 2011, published 2015):
Where two headings read alike, the source gives them in different places.

Molecular target: T1, soluble guanylate cyclase (sGC) (Homo sapiens, UniProt Q02108+Q02153)
T1 construct: endogenously expressing soluble guanylate cyclase (sGC); endogenous in cells; host or cells: HEK293
T1 sequence (Q02153 1-619): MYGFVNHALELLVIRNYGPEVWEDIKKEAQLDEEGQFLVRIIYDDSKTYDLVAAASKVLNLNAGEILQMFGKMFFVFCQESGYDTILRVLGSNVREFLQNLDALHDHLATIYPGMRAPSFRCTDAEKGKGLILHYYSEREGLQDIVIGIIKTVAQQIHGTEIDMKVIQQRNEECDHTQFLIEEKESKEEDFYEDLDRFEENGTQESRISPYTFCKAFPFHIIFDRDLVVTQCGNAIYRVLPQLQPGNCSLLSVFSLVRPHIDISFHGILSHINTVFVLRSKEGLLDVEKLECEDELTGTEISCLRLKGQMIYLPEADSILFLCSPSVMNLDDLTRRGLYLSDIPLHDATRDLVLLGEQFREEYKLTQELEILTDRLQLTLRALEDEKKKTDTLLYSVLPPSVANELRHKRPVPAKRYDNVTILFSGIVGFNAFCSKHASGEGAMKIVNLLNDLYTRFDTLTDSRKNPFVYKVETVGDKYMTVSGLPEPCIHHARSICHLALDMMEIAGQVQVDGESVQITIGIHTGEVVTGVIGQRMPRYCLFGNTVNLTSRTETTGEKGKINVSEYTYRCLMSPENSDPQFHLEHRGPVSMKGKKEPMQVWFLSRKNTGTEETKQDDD
T1 sequence (Q02108 1-690): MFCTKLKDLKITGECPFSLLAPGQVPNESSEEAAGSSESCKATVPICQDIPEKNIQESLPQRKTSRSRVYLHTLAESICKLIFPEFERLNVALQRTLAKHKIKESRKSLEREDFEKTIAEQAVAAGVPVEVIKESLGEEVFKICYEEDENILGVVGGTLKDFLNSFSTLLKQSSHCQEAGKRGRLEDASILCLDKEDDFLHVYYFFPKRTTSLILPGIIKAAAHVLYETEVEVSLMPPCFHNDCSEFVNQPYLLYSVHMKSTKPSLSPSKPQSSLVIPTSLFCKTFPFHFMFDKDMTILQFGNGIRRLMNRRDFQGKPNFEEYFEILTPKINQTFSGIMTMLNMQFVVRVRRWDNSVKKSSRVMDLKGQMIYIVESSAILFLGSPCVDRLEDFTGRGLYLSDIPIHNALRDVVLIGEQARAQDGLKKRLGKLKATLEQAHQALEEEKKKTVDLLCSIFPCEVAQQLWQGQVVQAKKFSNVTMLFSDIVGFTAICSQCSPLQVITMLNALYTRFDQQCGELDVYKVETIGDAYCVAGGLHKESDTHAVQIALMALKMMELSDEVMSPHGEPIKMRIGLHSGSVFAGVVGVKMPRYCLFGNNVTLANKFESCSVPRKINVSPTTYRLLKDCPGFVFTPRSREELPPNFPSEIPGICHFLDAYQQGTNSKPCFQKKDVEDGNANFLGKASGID
Test: sGC-HEK-cGMP assay (run with SNP incubation)
Format: cell-based
Details: for Emax: 10 μM SNP, 100% = 30 μM BAY 41-2272 with 10 μM SNP, read-out: HEK assay Emax-unconstrained (Percent); for HEK MEC-10: concentration that would elicit 10% of the Emax in the presence of 10 μM SNP; for EC50: in the presence of 10 μM SNP
Method: Biological Activity Measurement by the sGC-HEK-cGMP Assay
(Assay Run with SNP Incubation)
Human embryonic kidney cells (HEK293), endogenously expressing soluble guanylate cyclase (sGC), were used to evaluate the activity of test compounds. Compounds stimulating the sGC receptor should cause an increase in the intracellular concentration of cGMP. HEK 293 cells were seeded in Dulbecco's Modification of Eagle's Medium supplemented with fetal bovine serum (10% final) and L-glutamine (2 mM final) in a 2004 volume at a density of 1×10^5 cells/well in a poly-D-lysine coated 96 well flat bottom plate and grown overnight at 37° C. Medium was aspirated and cells were washed with 1× Hank's Buffered Saline Salt Solution (2004). Cells were then incubated for 15 minutes at 37° C. with 0.5 mM 3-isobutyl-1-methylxanthine (2004). Test article and sodium nitroprusside were then added to the assay mixture (24 each) and incubated at 37° C. for 10 minutes. After the 10 minute incubation, the assay mixture was aspirated and 0.1M HCl (2004) was added to the cells. The plate was incubated at 4° C. for 30 minutes in the 0.1M HCl to stop the reaction and lysed the cells. The plates were then centrifuged at 1,200 g for 5 minutes at room temperature. Supernatants were collected and transferred to a new flat bottom 96 well plate for analysis. Vehicle controls were carried out using DMSO (1%). A known sGC stimulator, BAY 41-2272, was used as the positive control. Samples were diluted with an equal volume of 1 M Ammonium Acetate (pH 7) to neutralize samples for better chromatography. A 2×cGMP standard curve was prepared in 0.1 M HCl and then diluted with an equal volume of 1 M Ammonium Acetate, with the following final concentrations in nM: 1024, 512, 256, 128, 64, 32, 16, 8, 4, 2, 1.cGMP concentrations were determined from each sample using the LC/MS conditions (Table 2 below) and calculated standard curve. EC50 values were calculated from concentration-response curves generated with GraphPad Prism Software.

[1] = Table 3C, top of concentration-response curve not fitted to 100%
[2] = Table 3F, read-out: HEK assay EC50
[3] = top of concentration-response curve not fitted to 100%, Table 3F, read-out: HEK assay EC50-unconstrained
[4] = Table 3A, top of concentration-response curve not fitted to 100%
[5] = Table 3D, read-out: HEK assay EC50
[6] = top of concentration-response curve not fitted to 100%, Table 3D, read-out: HEK assay EC50-unconstrained
[7] = Table 3B, top of concentration-response curve not fitted to 100%
[8] = top of concentration-response curve not fitted to 100%, Table 3E, read-out: HEK assay EC50-unconstrained
[9] = Table 3E, read-out: HEK assay EC50

Row | SMILES | Emax [4] [%] | HEK MEC-10 (Table 3D) | EC50 [5] [µM] | EC50 [6] [µM] | further results
1 | Nc1nc(-c2cc(-c3ccon3)n(Cc3cccc(F)c3F)n2)ncc1NC(=O)c1ccn[nH]1 [Compound 106] |  |  |  |  | Emax [1]: 80 to 100%; HEK MEC-10 (Table 3F): D (1 to <10 μM); EC50 [2]: < 20 µM; EC50 [3]: 5 to 10 µM
2 | O=c1[nH]c(-c2cc(-c3ccon3)n(Cc3ccccc3F)n2)ncc1S(=O)(=O)N1CCCC1 [Compound 21] | 60 to 80 | C (0.1 to <1 μM) | < 20 | 0.5 to 1 | 
3 | CC1(C(=O)Oc2cnc(-c3cc(-c4ccon4)n(Cc4ccccc4F)n3)nc2N)CC1 [Compound 5] | 80 to 100 | C (0.1 to <1 μM) | < 20 | 10 to 50 | 
4 | Nc1ccnc(-c2cc(-c3ccon3)n(Cc3c(F)ccc(F)c3F)n2)n1 [Compound 15] | 20 to 40 | D (1 to <10 μM) | 40 to 60 | 1 to 5 | 
5 | COc1nc(-c2cc(-c3ccon3)n(Cc3ccccc3F)n2)nc(Cl)c1F [Compound 116] |  |  |  |  | Emax [1]: 20 to 40%; HEK MEC-10 (Table 3F): D (1 to <10 μM); EC50 [2]: 60 to 100 µM
6 | CN(C)Cc1ccc(C(=O)Nc2cnc(-c3cc(-c4ccon4)n(Cc4cccc(F)c4F)n3)nc2N)cc1 [Compound 102] |  |  |  |  | Emax [1]: 60 to 80%; HEK MEC-10 (Table 3F): C (0.1 to <1 μM); EC50 [2]: < 20 µM; EC50 [3]: 1 to 5 µM
7 | COc1ccc(C2(C(=O)Nc3cnc(-c4cc(-c5ccon5)n(Cc5ccccc5F)n4)nc3N)CC2)cc1 [Compound 12] | 60 to 80 | B (0.01 to <0.1 μM) | < 20 | 0.01 to 0.5 | 
8 | CN(Cc1ccccc1)S(=O)(=O)c1cnc(-c2cc(-c3ccon3)n(Cc3ccccc3F)n2)[nH]c1=O [Compound 16] | 60 to 80 | C (0.1 to <1 μM) | < 20 | 0.5 to 1 | 
9 | N#Cc1nc(-c2cc(-c3ccon3)n(Cc3ccccc3F)n2)ncc1F [Compound 115] |  |  |  |  | Emax [1]: 20 to 40%; HEK MEC-10 (Table 3F): D (1 to <10 μM); EC50 [2]: 40 to 60 µM; EC50 [3]: 1 to 5 µM
10 | Nc1nc(-c2cc(-c3ccon3)n(Cc3cccc(F)c3F)n2)ncc1NC(=O)c1ccc[nH]1 [Compound 103] |  |  |  |  | Emax [1]: 80 to 100%; HEK MEC-10 (Table 3F): A (0.001 to <0.01 μM); EC50 [2]: < 20 µM; EC50 [3]: 0.01 to 0.5 µM
11 | Oc1nc(-c2cc(-c3ccon3)n(Cc3ccccc3F)n2)ncc1Sc1ccc(F)cc1 [Compound 4, 2-(1-(2-fluorobenzyl)-5-(isoxazol-3-yl)-1H-pyrazol-3-yl)-5-(4-fluorophenylthio)pyrimidin-4-ol] | 60 to 80 | C (0.1 to <1 μM) | < 20 | 1 to 5 | 
12 | Fc1ccccc1Cn1nc(-c2ncc(Br)c(OCc3ccccc3)n2)cc1-c1ccon1 [Compound 50] |  |  | 1200 to 7000 |  | 
13 | Oc1nc(-c2cc(-c3ccon3)n(Cc3ccccc3F)n2)ncc1Sc1ccc(Cl)cc1 [Compound 6, 5-(4-chlorophenylthio)-2-(1-(2-fluorobenzyl)-5-(isoxazol-3-yl)-1H-pyrazol-3-yl)pyrimidin-4-ol] | 60 to 80 | C (0.1 to <1 μM) | < 20 | 1 to 5 | 
14 | Oc1nc(-c2cc(-c3ccco3)n(Cc3ccccc3F)n2)ncc1F [Compound 90] |  |  |  |  | Emax [7]: 40 to 60%; EC50 [8]: 0.01 to 0.5 µM
15 | CN(C)S(=O)(=O)c1cnc(-c2cc(-c3ccon3)n(Cc3ccccc3F)n2)[nH]c1=O [Compound 22] | 80 to 100 | D (1 to <10 μM) | < 20 | 1 to 5 | 
16 | Nc1nc(-c2cc(-c3ccon3)n(Cc3ccccc3F)n2)ncc1N1CC(C(F)(F)F)OC1=O (centres unmarked) [Compound 83, 3-(4-amino-2-(1-(2-fluorobenzyl)-5-(isoxazol-3-yl)-1H-pyrazol-3-yl)pyrimidin-5-yl)-5-(trifluoromethyl)oxazolidin-2-one] |  |  |  |  | EC50 [9]: 60 to 100 µM; EC50 [8]: 0.5 to 1 µM
17 | Oc1nc(-c2cc(-c3ccon3)n(Cc3cccc(Cl)c3F)n2)ncc1Cl [Compound 82] |  |  |  |  | Emax [7]: 40 to 60%; HEK MEC-10 (Table 3E): B (0.01 to <0.1 μM); EC50 [9]: 40 to 60 µM; EC50 [8]: 0.01 to 0.5 µM
18 | CN(c1ccccc1)S(=O)(=O)c1cnc(-c2cc(-c3ccon3)n(Cc3ccccc3F)n2)[nH]c1=O [Compound 25] | 60 to 80 | C (0.1 to <1 μM) | < 20 | 0.5 to 1 | 
19 | Nc1nc(-c2cc(-c3ccon3)n(Cc3ccccc3F)n2)ncc1NC(=O)C1(c2cccc(F)c2)CC1 [Compound 11] | 60 to 80 | B (0.01 to <0.1 μM) | < 20 | 0.01 to 0.5 | 

Further lines, with some results ahead:

Row | Emax [4] [%] | HEK MEC-10 (Table 3D) | EC50 [5] [µM] | EC50 [6] [µM] | SMILES | further results
20 | ≥ 120 | D (1 to <10 μM) | < 20 | 10 to 50 | O=c1[nH]c(-c2nn(Cc3ccccc3F)c(-c3ccon3)c2F)ncc1F [Compound 3] | 
21 | 80 to 100 | C (0.1 to <1 μM) | 20 to 40 | 10 to 50 | Nc1ccnc(-c2cc(-c3ccon3)n(Cc3cccc(F)c3F)n2)n1 [Compound 37] | 
22 | 20 to 40 | D (1 to <10 μM) | 40 to 60 | 0.5 to 1 | O=c1[nH]c(-c2cc(-c3ccon3)n(Cc3c(F)ccc(F)c3F)n2)ncc1F [Compound 19, 5-fluoro-2-(5-(isoxazol-3-yl)-1-(2,3,6-trifluorobenzyl)-1H-pyrazol-3-yl)pyrimidin-4-ol] | 
23 |  | E (10 to 50 μM) |  |  | Fc1cnccc1Cn1nc(-c2ncccn2)cc1-c1ccon1 [Compound 23] | 
24 | 60 to 80 | C (0.1 to <1 μM) | < 20 | 1 to 5 | Oc1nc(-c2cc(-c3cocn3)n(Cc3ccccc3F)n2)ncc1F [Compound 48] | 
25 | 80 to 100 | B (0.01 to <0.1 μM) | < 20 | 0.01 to 0.5 | Nc1nc(-c2cc(-c3ccon3)n(Cc3ccccc3F)n2)ncc1NC(=O)C1(c2ccc(F)cc2)CC1 [Compound 13] | 
